The values that follow come from patent publication US5994363A (priority 1998, dated 1999).

Data set [1] is described as follows: Bioavailability by route of administration in dog (Example 3). As to conditions: in vivo.
Data set [2] in a line: Plasma concentration profile in dog at day 1, 90 and 180 (Example 2). As to conditions: day 1, day 90 or day 180, 0.04, 0.1, 0.4 mg/kg. Type of data set: in vivo.
Method: To assess whether the reduction in side effects could be attributable to changes in pharmacokinetic response, a plasma concentration profile study was conducted for each dosage group at day 1, day 90 and day 180.
Data set [3] in a line: Adverse events in escalating dose tolerance study in psychogenic male erectile dysfunction (Example 5). Type of data set: in vivo, human. As to conditions: in vivo. Here is the method:
Example 5-Summary. This clinical study was conducted in three phases. In Phase 1 subjects were selected from among patients complaining of impotence by a thorough physiological and psychological assessment. For example, one step in the assessment process required candidates to undergo Rigiscan measurement of penile rigidity and circumference following administration of a placebo tablet in single blind fashion. Phase 2 consisted of a dose escalation (4, 6, and 8 mg tablets) administered on 4 visits. An out-patient phase was conducted as Phase 3. Patients were given apomorphine HCL tablets to use at home.
Example-5 Detailed Description (Clinical Study #94-03-01). The human study was conducted in three separate phases. Phase 1 consisted of selecting appropriate subjects and obtaining baseline information on sexual performance for each subject.
They were tested on four separate days at four separate doses (placebo and three active medication doses) with an interval of no less than six days between visits (i.e., one visit per week).
If the trial was aborted, the patient was given the choice of having Gravol 50 mg p.o. (an anti-emetic) administered at that time or enduring the adverse events as they arose. In either event, the patient was monitored by the research clinician until all side-effects had subsided. The patient was asked to return the following week for the next scheduled dose.
During the five-week, home-use phase, subjects were to attempt coitus at least once each week after taking a single APO tablet. After each attempt, the subject and their partner completed a Sexual Function questionnaire (See FIGS. 15 and 16) which was later evaluated and used for final statistical analysis.
The data was analyzed by an inspection of the reported adverse events, the given dose of apomorphine and the phase of the study, i.e., in-patient (dose escalating) or take-home (constant dose) phases.

Data set [4] in a line: Nerve stimulated clitoral and vaginal wall blood flow in females. Type of data set: in vivo. The conditions noted are these: administration to females.
Data set [5] can be described thus: Apomorphine in human patients: erection and side effects (prior studies / general findings). As to conditions: apomorphine dosage forms. It counts as in vivo. The source says:
The specific mechanisms by which apomorphine acts to produce an erectile response in a human patient are not yet completely understood, however.

For data set [6] the following is noted: cited from earlier work.
The conditions of data set [7]: cited from earlier work. This is another data set of the same source.
For data set [8] the following is noted: cited from earlier work. The source holds these as a separate data set.
Data set [9] is described as follows: Pharmacokinetic comparison of 4- and 8-mg sublingual tablets with 1 mg i.v. in healthy male volunteers (Example 4).
A short description of a further data set: clinical. The conditions noted are these: human, plasma.
Data set [10] in a line: Plasma concentration or dose threshold for adverse effects.

The structures appear in SMILES notation.

A word on the AUC: it is the area under the concentration-time curve, a measure of exposure. Higher therefore signals more exposure. In general, Cmax refers to the maximum level reached in the sampled fluid or tissue. As to `CN1CCc2cccc3c2[C@H]1Cc1ccc(O)c(O)c1-3` [apomorphine, (R)-5,6,6a,7-Tetrahydro-6-methyl-4H-dibenzo-[de,g] quinoline-10,11-diol], the AUC in [1] (0.2 mg/kg) is 5.45 ng·h/mL; in data set [1] (po, 0.2 mg/kg), 1.58 ng·h/mL; in [1] (sc, 0.04 mg/kg), 8.06 ng·h/mL; in “clinical” (4 mg), 0.527 ng·h/mL; in the data set “clinical” (8 mg), 4.72 ng·h/mL; in the data set “clinical” (iv, 1 mg) it was 3.45 ng·h/mL. Further, the “AUC, distribution, or elimination over repeated dosing” value in [2] is given as “No evidence of significant changes”. In addition, the “blood or urinalysis values” in data set [3] is given as “no clinically significant changes”. Besides, the “nerve stimulated clitoral intracavernosal and vaginal wall blood flow” value in [4] is “increases nerve stimulated clitoral intracavernosal blood flow and vaginal wall blood flow”. Moreover, the “effectiveness in Parkinson's disease and psychogenic erectile dysfunction” value in data set [5] is reported as “effective”. Further, the “side effects / therapeutic usefulness (Segraves)” value in data set [6] (erectile responses in human males) is on record as “too many side effects to have therapeutic usefulness”. Further, the “erection in psychogenic male patients” value in data set [6] (psychogenic impotence) was “can indeed induce an erection in a psychogenic patient”. Also, the “side effects at dose required for significant erectile response” value in data set [6] (psychogenic impotence) is “usually accompanied by nausea or other serious undesirable side effects, including hypertension, flushing and diaphoresis (sweating)”. Also, in data set [7] (large doses, mammals such as humans, dogs), the “nausea and vomiting after large doses” value is “usually results in nausea and vomiting”. The emetic dose in [7] (subcutaneous, recognized use as an emetic) is on record as ~5 milligram. Also, in data set [8] (1,500 μg/kg/hr, 14 day study), the “lethality of larger infusion dose” value is recorded as “minimally lethal”. In addition, in [8] (continuous infusion, 14 days), the “tolerated continuous infusion dose” value was 420 µg/kg/h. For the same compound, in [9] (i.v. 1 mg), the “MRT (mean residual time)” value turned out to be 40.3 min. Besides, the “Vd (volume of distribution @ β stage)” value in [9] (s.l. tablet 8 mg) was 2.07 L/kg. Also, the Cmax was found to be 0.83 ng/mL in the data set “clinical” (4 mg) and 8.3 ng/mL in “clinical” (iv, 1 mg). In data set [10] (plasma concentration maintained at no more than), the “plasma concentration at which incidence of adverse side effects is minimal” value is “no more than 5.5 ng/ml”. Further, in data set [10] (plasma, human male subjects, nausea), the “threshold concentration (Cmax) for onset of adverse effects” value is given as “about 2.5 nanograms/milliliter”. Also, the “threshold dose for most impotence patients” value in [10] (sublingual tablet, week 1) is recorded as 2 mg.
